According to article PMC4184702 (Pharmacology Research & Perspectives, 2014):
Entries after “also recorded” stand apart in the source; their conditions may differ.

Columns and labels:
[1] = target: hERG (human ether-a-go-go-related gene) (Homo sapiens, UniProt Q12809); assay: hERG inhibition assay; conditions: in words
[2] = target: T1, human muscle-type α1β1γδ-nAChR (Homo sapiens, UniProt P02708+P07510+Q07001); assay: 86Rb+ ion efflux assay, TE671/RD cells; format: cell-based; conditions: 86Rb+ ion flux assay
T1 construct: TE671/RD naturally expresses human muscle-type α1*-nAChRs; endogenous in cells; host or cells: TE671/RD human clonal cell line
Excerpt: Cell lines naturally or heterologously expressing specific, functional, human nAChR subtypes were used. The human clonal cell line TE671/RD naturally expresses human muscle-type α1*-nAChRs, containing α1, β1, γ, and δ subunits, with function detectable using ^86Rb^+ efflux assays. […] These cells heterologously express human nAChR chimeric (α6/3) subunits (wherein the extracellular, N-terminal, ligand-binding domain of the human nAChR α6 subunit replaces that domain in the nAChR α3 subunit) along with human β2 and β3 subunits. […] Cells were passaged once a week by splitting just-confluent cultures 1/300 (TE671/RD), 1/10 (SH-SY5Y), or 1/40 (transfected SH-EP1) in serum-supplemented medium to maintain log-phase growth.
One newer modification on these techniques involves low temperature incubation before assays to increase the surface expression of high sensitivity (HS) relative to low sensitivity (LS) α4β2 nAChRs and to enhance surface expression of (α6/3)β2β3-nAChRs. […] In brief, this allows us to determine efficacies of test compounds at LS and HS α4β2 nAChRs, respectively, as the ordinate values of the linear regressions at abscissa values of 0% and 100% of sazetidine-A efficacy.
Results are normalized to responses to a fully efficacious concentration of carbamylcholine (see Materials and Methods for details). […]

M2 muscarinic receptor = target: T2, M2 muscarinic receptor (Homo sapiens, UniProt P08172); assay: PDSP primary binding, M2; conditions: n = 4, read-out: Inhibition (primary binding competition efficacy), M2
T2 construct: purchased NIMH Psychoactive Drug Screening Program (PDSP)
Protocol: (§1) For experimental details, please refer to the Psychoactive Drug Screening Program (PDSP) web site http://pdsp.med.unc.edu/.
(§2) ^a The default concentration for primary binding experiments is 10 µM (n = 4). ^b Negative inhibition represents a stimulation of binding. ^c BZPR: Benzodiazepine Receptors (rat brain site). ^d DOR: Delta Opioid Receptor; KOR: Kappa Opioid Receptor; MOR: Mu Opioid Receptor. ^e DAT: Dopamine Transporter; NET: Norepinephrine Transporter; SERT: Serotonin Transporter. ^f NMDA: N-methyl-D-aspartate receptor.

5-HT7 = target: T3, 5-HT7 (Homo sapiens, UniProt P34969); assay: PDSP primary binding, 5-HT7; conditions: n = 4, read-out: Inhibition (primary binding competition efficacy), 5-HT7
T3 construct: purchased NIMH Psychoactive Drug Screening Program (PDSP)
Protocol: as §1, §2

[3] = target: β2-containing nAChRs (α2β2, α3β2, α4β2, and α4β2*); set-up: method as in Yu et al. [2012]; conditions: ref Yu et al. [2012], read-out: Ki values range at β2-containing nAChRs; cited from earlier work
β3 adrenergic receptor = target: T4, β3 adrenergic receptor (Homo sapiens, UniProt P13945); assay: PDSP primary binding, β3; conditions: n = 4, read-out: Inhibition (primary binding competition efficacy), β3
T4 construct: purchased NIMH Psychoactive Drug Screening Program (PDSP)
Protocol: as §1, §2

PBR = target: T5, PBR (Rattus norvegicus, UniProt P16257); assay: PDSP primary binding, PBR; conditions: n = 4, read-out: Inhibition (primary binding competition efficacy), PBR
T5 construct: purchased NIMH Psychoactive Drug Screening Program (PDSP)
Protocol: as §1, §2

[4] = tested on: BZPR: Benzodiazepine Receptors (rat brain site); assay: PDSP primary binding, BZPR; conditions: 10 µM, n = 4
Protocol: as §1, §2

α1D adrenergic receptor = target: T6, α1D adrenergic receptor (Homo sapiens, UniProt P25100); assay: PDSP primary binding, α1D; conditions: n = 4, read-out: Inhibition (primary binding competition efficacy), α1D
T6 construct: purchased NIMH Psychoactive Drug Screening Program (PDSP)
Protocol: as §1, §2

5-HT2B = target: T7, 5-HT2B (Homo sapiens, UniProt P41595); assay: PDSP primary binding, 5-HT2B; conditions: n = 4, read-out: Inhibition (primary binding competition efficacy), 5-HT2B
T7 construct: purchased NIMH Psychoactive Drug Screening Program (PDSP)
Protocol: as §1, §2

[5] = target: T8, DOR: Delta Opioid Receptor (Homo sapiens, UniProt P41143); assay: PDSP primary binding, DOR; conditions: n = 4, read-out: Inhibition (primary binding competition efficacy), DOR
T8 construct: purchased NIMH Psychoactive Drug Screening Program (PDSP)
Protocol: as §1, §2

Male C57 BL6 mice = assay: SmartCube test; format: in vivo, mouse
Protocol: Male C57 BL6 mice (Taconic Farms) were used in the SmartCube® assay (PsychoGenics Inc., Tarrytown, NY). Mice were received at 7 weeks old and group-housed in OptiMICE ventilated cages with four mice/cage. Mice were acclimated to the colony room for at least 1 week prior to the first injections. All animals were tested in SmartCube® at 8 10 weeks old.
To acquire initial in vivo evaluation of our nicotinic ligands for behavioral effects relevant to psychiatric diseases, we used SmartCube®, an automated system in which mouse behavior is captured by digital video using novel, proprietary hardware that presents multiple challenges in a single test session and is analyzed with computer algorithms. Digital videos of the subjects are processed with computer vision algorithms to extract more than 1400 dependent measures including frequency and duration of behavioral states such as grooming, rearing, etc., and many other features obtained during the test session. Using machine learning techniques chosen to best separate pharmacological effects of reference compounds, the behavioral signatures of the mutant mice are then assessed quantitatively.
The most dominant of the features collected that define the drug class signature are identified and ranked using complex proprietary bioinformatics algorithms. The outcome of a SmartCube® run is a set of more than 1400 features (behavioral parameters) that can be used for various analyses. Many of these features are correlated (e.g., rearing counts and supported rearing counts). Therefore, we form statistically independent combinations of the original features (further referred to as decorrelated features) that discriminate between the groups more effectively. Next, we apply a proprietary feature ranking algorithm to score each feature discrimination power to weight each feature change by its relevance. The data obtained in this way are used to define drug signatures for known reference compounds and to establish therapeutic class signatures against which a test sample can be compared. The neuropharmacological effects of a test compound can be predicted by similarity to major classes of compounds, such as antipsychotics, anxiolytics, and antidepressants (Roberds et al. [2011]).
Mice are taken in their home cage to the SmartCube® suite of experimental rooms where they remain until they are placed in the apparatus for a single testing session. A standard SmartCube® protocol runs for a single session (∼45 min). After the session mice are group-housed again and brought back to the colony room. Any abnormal behavior is noted. […] At least 12 mice were used in each treatment group.

T5 sequence (P16257 whole entry): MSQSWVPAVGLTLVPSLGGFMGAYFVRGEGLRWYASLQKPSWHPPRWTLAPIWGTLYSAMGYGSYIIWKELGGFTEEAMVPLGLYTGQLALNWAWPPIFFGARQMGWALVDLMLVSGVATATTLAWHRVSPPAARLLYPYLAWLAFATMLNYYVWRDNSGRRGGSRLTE
T6 sequence (P25100 whole entry): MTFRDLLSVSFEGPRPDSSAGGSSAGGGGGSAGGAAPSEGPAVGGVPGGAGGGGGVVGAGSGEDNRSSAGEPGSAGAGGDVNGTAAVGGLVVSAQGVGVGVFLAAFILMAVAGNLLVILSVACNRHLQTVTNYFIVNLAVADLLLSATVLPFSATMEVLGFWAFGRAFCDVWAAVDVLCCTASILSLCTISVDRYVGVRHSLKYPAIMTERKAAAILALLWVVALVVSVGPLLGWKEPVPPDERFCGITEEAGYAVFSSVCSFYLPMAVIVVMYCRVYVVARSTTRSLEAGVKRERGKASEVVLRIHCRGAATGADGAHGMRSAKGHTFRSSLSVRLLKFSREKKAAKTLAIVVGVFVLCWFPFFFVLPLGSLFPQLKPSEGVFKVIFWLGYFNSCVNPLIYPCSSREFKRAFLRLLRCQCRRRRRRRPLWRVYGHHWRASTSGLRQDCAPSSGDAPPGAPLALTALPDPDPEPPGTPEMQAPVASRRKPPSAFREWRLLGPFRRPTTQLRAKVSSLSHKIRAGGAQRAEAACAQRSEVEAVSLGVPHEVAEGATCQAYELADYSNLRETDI
T1 sequence (P02708 21-457): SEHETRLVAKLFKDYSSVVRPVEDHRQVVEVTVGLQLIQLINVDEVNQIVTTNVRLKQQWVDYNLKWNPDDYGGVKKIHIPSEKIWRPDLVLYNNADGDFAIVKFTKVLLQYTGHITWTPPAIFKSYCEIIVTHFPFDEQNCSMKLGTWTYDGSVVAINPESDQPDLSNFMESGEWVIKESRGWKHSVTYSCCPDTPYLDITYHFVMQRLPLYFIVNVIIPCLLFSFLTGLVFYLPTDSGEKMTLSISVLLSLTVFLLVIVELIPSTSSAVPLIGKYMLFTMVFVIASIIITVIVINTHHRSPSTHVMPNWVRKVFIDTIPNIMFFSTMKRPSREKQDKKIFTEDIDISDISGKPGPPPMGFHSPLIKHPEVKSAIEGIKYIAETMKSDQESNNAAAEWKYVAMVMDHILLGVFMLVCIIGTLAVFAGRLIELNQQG
T1 sequence (P11230 24-501 partner): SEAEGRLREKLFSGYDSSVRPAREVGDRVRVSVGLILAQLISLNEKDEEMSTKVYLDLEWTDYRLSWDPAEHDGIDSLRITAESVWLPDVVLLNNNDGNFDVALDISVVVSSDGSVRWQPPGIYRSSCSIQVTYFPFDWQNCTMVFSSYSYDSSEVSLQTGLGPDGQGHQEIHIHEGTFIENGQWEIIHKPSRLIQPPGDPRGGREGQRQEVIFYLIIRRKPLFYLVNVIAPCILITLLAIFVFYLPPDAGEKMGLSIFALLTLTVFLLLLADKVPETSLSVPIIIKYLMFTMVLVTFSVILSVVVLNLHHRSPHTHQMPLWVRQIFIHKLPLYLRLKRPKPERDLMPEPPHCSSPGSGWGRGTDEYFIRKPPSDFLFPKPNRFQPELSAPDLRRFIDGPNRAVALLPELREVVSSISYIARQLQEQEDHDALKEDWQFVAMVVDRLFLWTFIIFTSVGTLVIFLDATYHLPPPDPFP
T1 sequence (P07510 23-517): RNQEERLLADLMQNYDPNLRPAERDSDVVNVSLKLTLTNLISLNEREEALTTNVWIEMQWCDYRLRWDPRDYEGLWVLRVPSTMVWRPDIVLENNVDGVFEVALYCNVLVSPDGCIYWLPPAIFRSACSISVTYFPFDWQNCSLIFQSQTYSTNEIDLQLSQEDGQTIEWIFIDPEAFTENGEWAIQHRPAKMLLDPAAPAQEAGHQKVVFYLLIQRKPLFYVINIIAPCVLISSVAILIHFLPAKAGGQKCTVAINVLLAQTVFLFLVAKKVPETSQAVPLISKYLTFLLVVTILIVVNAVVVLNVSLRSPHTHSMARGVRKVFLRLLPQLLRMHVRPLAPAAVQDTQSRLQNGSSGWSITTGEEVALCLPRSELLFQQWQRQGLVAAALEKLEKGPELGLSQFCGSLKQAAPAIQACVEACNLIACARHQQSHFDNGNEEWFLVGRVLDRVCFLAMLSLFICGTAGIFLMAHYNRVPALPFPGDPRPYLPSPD
T1 sequence (Q07001 22-517): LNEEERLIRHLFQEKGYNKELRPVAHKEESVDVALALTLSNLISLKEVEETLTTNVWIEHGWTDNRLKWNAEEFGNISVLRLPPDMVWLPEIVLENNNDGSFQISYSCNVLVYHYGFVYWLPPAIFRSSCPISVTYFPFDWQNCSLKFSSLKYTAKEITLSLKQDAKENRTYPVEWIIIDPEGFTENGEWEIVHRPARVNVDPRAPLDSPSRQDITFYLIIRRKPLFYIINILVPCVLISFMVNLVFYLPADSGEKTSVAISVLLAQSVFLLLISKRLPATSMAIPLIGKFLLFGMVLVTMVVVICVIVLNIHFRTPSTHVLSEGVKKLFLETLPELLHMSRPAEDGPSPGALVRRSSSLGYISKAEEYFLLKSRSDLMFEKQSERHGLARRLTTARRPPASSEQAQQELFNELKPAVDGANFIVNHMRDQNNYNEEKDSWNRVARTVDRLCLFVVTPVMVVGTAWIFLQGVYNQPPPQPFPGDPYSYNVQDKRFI
T8 sequence (P41143 whole entry): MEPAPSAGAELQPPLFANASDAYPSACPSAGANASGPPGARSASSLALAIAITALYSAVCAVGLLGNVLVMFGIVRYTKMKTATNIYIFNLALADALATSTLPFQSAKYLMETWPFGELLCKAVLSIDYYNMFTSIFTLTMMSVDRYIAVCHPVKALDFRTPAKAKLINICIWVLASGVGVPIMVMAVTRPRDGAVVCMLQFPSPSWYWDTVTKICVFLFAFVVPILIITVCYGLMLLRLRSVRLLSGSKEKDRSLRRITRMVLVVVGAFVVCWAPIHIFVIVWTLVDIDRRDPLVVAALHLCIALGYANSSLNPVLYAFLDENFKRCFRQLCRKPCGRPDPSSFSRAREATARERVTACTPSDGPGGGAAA
T2 sequence (P08172 whole entry): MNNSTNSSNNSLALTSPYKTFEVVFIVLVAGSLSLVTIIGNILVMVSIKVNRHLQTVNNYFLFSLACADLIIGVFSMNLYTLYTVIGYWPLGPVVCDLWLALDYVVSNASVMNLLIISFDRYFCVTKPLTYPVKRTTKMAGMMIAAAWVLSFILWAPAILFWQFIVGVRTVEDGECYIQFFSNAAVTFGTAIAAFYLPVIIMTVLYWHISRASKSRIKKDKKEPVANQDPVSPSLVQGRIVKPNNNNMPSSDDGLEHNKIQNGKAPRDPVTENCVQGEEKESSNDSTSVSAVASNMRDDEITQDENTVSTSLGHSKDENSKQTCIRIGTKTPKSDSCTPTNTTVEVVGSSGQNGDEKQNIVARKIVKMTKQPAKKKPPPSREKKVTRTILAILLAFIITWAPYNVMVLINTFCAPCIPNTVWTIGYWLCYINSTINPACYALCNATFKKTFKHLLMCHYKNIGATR
T7 sequence (P41595 whole entry): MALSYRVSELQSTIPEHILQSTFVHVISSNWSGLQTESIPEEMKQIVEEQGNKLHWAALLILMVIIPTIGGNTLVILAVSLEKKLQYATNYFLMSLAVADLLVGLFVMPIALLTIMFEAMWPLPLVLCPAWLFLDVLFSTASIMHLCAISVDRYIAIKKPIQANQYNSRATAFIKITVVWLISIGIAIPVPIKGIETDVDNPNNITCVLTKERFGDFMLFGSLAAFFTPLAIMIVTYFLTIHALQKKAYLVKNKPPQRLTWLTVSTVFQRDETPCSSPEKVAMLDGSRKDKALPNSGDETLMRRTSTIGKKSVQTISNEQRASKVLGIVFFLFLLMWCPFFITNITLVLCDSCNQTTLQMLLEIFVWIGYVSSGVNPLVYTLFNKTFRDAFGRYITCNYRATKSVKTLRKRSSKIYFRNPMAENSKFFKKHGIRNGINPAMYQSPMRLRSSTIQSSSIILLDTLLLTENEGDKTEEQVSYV
T3 sequence (P34969 whole entry): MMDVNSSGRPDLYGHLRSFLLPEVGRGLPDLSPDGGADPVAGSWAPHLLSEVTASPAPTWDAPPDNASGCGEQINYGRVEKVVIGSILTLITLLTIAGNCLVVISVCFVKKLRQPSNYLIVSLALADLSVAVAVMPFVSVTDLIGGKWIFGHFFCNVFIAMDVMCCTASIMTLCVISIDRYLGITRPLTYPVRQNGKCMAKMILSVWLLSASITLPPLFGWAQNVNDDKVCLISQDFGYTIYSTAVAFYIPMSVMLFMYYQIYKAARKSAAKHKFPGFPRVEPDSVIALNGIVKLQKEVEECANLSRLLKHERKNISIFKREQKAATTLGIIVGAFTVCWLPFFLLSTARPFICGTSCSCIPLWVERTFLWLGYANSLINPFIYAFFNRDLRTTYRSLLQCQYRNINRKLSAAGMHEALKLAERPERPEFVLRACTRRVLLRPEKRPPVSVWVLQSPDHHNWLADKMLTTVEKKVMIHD
T4 sequence (P13945 whole entry): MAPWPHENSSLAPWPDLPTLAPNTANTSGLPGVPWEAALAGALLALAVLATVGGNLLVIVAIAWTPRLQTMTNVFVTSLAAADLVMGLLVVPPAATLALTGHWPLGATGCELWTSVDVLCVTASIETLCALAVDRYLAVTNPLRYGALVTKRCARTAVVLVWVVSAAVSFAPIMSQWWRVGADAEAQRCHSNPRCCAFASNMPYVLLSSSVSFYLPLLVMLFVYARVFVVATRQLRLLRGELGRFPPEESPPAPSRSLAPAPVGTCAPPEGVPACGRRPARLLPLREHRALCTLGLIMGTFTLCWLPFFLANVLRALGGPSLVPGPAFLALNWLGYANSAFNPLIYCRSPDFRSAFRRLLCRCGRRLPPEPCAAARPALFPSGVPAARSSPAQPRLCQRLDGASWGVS

OCCc1cc(-c2cncc(OC[C@@H]3CCN3)c2)on1 [LF-3-88, 2-[5-[5-(2(S)-azetidinylmethoxyl)-3-pyridyl]-3-isoxazolyl]ethanol]
profile in hERG inhibition assay [1]: favorable profile
agonist or antagonist activity at muscle-type α1β1γδ-nAChRs [2]: no significant agonist or antagonist activity
inhibition at 10 µM (M2 muscarinic receptor): 6.8%
inhibition at 10 µM (5-HT7): 1.1%
Ki [3]: 0.6 to 15.4 nM
inhibition at 10 µM (β3 adrenergic receptor): 28.3%
inhibition at 10 µM (PBR): -1.5%
Inhibition (primary binding competition efficacy), BZPR [4]: 6.7%
inhibition at 10 µM (α1D adrenergic receptor): -3.4%
inhibition at 10 µM (5-HT2B): 7.9%
inhibition at 10 µM [5]: 5.9%
SmartCube antidepressant (green) component (Male C57 BL6 mice; 5 and 10 mg/kg, i.p.): antidepressive-like behavioral signatures; also recorded: potential antidepressive-like behavior; also recorded: most pronounced
SmartCube side effects (Male C57 BL6 mice; 5 and 10 mg/kg, i.p.): Minimal side effects
SmartCube side effect signature (Male C57 BL6 mice; both tested doses (5 and 10 mg/kg)): less than 10%
SmartCube behavioral signature (Male C57 BL6 mice; both tested doses, i.p., 15 min preinjection): robust CNS drug-like signatures
